Results: PMC12141164, “Phase-1 study of vamotinib (PF-114), a 3rd generation BCR::ABL1 tyrosine kinase-inhibitor, in chronic myeloid leukaemia” (Annals of Hematology, 2025)
Where two headings read alike, the source gives them in different places.

Columns and labels:
[1] = tested on: subjects with BCR::ABL1 positive CML; settings: for SAE: Upper respiratory tract infection: Relation to study drug No
Method: Open-label phase-1 study at 3 clinical centers with dose-escalation using a 3 + 3 scheme with a starting dose of 50 mg/d given continuously. A 28-days of therapy was defined as a cycle. Dose escalation for the subsequent cohort depended on the results of the safety assessment of subjects in the preceding cohort during the 28 days of therapy. Once an MTD was identified expanded cohorts of 10–15 subjects were recruited at doses of interest below the MTD. A modified accelerated dose-escalation regimen was used up to a dose of 400 mg. Dose could be increased for subjects in whom the dose was reduced because of an adverse drug reaction (ADR). Severity of adverse events was assessed using NCI CTC AE v4 [28].
The primary objective was to determine the MTD and DLT of vamotinib during the 1st cycle of therapy. Secondary objectives were to assess the safety and tolerability of vamotinib, determine pharmacokinetics and determine efficacy by response criteria according to 2013 ELN [29].
Safety set consists of all patients, who at least once took the study drug.
Population for DLT evaluation consists of all patients, who received sufficient amount of the study drug during Cycle 1 for adequate DLT assessment.
The sufficient amount of the drug is determined as the intake of ≥ 75 % of the scheduled dose during Cycle 1, except for doses missed due to the DLT.

PDGFRa = settings: kinase inhibition profiles; cited from earlier work
animals = settings: cited from earlier work
EPHA7 = settings: kinase inhibition profiles; cited from earlier work

## Cc1ccc(C(=O)Nc2ccc(CN3CCN(C)CC3)c(C(F)(F)F)c2)cc1C#Cc1nnc2ccccn12 [vamotinib]
[1]; Cohort 1 50 mg N=3
  SAE: Infections and infestations: 0 n (%)
[1]; Cohort 2 100 mg N=3
  SAE: Infections and infestations: 0 n (%)
[1]; Cohort 3 200 mg N=11
  SAE: Infections and infestations: 0 n (%)
[1]; Cohort 4 400 mg N=12
  SAE: Infections and infestations: 0 n (%)
[1]; Cohort 5 500 mg N=3
  SAE: Infections and infestations: 0 n (%)
[1]; Cohort 6 600 mg N=6
  SAE: Infections and infestations: 2 (33.3)/2 n (%)
[1]; Cohort 7 750 mg N=4
  SAE: Infections and infestations: 0 n (%)
[1]; Cohort 8 300 mg N=9
  SAE: Infections and infestations: 3 (33.3)/3 n (%)
[1]; Overall N=51
  SAE: Infections and infestations: 5 (9.8)/5 n (%)
  SAE: Upper respiratory tract infection: 1 (2.0)/1 n (%)
[1]; Cohort 1 (50 mg) N=3
  SAE: Upper respiratory tract infection: 0 n (%)
[1]; Cohort 2 (100 mg) N=3
  SAE: Upper respiratory tract infection: 0 n (%)
[1]; Cohort 3 (200 mg) N=11
  SAE: Upper respiratory tract infection: 0 n (%)
[1]; Cohort 4 (400 mg) N=12
  SAE: Upper respiratory tract infection: 0 n (%)
[1]; Cohort 5 (500 mg) N=3
  SAE: Upper respiratory tract infection: 0 n (%)
[1]; Cohort 6 (600 mg) N=6
  SAE: Upper respiratory tract infection: 1 (16.7)/1 n (%)
[1]; Cohort 7 (750 mg) N=4
  SAE: Upper respiratory tract infection: 0 n (%)
[1]; Cohort 8 (300 mg) N=9
  SAE: Upper respiratory tract infection: 0 n (%)
[1]; human, in vivo
  Abdominal pain: 2 (4) Number of subjects (percent)
  Abdominal pain upper: 4 (8) Number of subjects (percent)
  Alanine aminotransferase increased: 2 (4) Number of subjects (percent)
  Anal fissure: 2 (4) Number of subjects (percent)
  Blood cholesterol increased: 3 (6) Number of subjects (percent)
  Discontinued: adverse event: 6
  Discontinued: intolerable adverse drug reaction in the opinion of the investigator: 2
  Dry skin: 9 (18) Number of subjects (percent)
  Dry skin and rash: 8 subjects
  Dry skin, Grade 3: 0 n
  Dry skin, Total: 9 n
  Dyspepsia: 2 (4) Number of subjects (percent)
  Erythema: 4 (8) Number of subjects (percent)
  Erythema, Grade 3: 0 n
  Erythema, Total: 4 n
  Eye disorders: 3 (6) Number of subjects (percent)
  Gastrointestinal disorders: 17 (33) Number of subjects (percent)
  Hepatitis toxic: 1 (2) Number of subjects (percent)
  Hepato-biliary disorders: 1 (2) Number of subjects (percent)
  Leukopenia: 1 (2) Number of subjects (percent)
  Low density lipoprotein increased: 2 (4) Number of subjects (percent)
  Nausea: 6 (12) Number of subjects (percent)
  Pruritus, Grade 3: 1 n
  Pruritus, Total: 5 n
  Psoriasiform dermatitis, Grade 3: 4 n
  Psoriasiform dermatitis, Total: 19 n
  Rash: 32 subjects
  Rash papular: 2 (4) Number of subjects (percent)
  Rash papular, Grade 3: 0 n
  Rash papular, Total: 2 n
  SAE: Acute sinusitis: 1 (2.0)/1 n (%)
  SAE: Appendicitis: 1 (2.0)/1 n (%)
  SAE: Atrial fibrillation: 1 (2.0)/1 n (%)
  SAE: Cardiac disorders: 1 (2.0)/1 n (%)
  SAE: Disease progression: 1 (2.0)/1 n (%)
  SAE: General disorders and administration site conditions: 1 (2.0)/1 n (%)
  SAE: Peritonitis: 1 (2.0)/1 n (%)
  SAE: Pneumonia: 1 (2.0)/1 n (%)
  Toxic skin eruption, Grade 3: 7 n
  Toxic skin eruption, Total: 9 n
  Transaminases increased: 1 (2) Number of subjects (percent)
  dose-reduction because of rash: 9 n
  study withdrawal because of rash: 6 n
  time after which skin lesions were resolved: 4–6 months
  time to resolution of skin toxicity after discontinuation of the drug: 1–2 weeks
[1]; human, in vivo, 28 days
  DLTs: 4
  dose-limiting toxicity (DLT): Grade-3 psoriasis-like skin toxicity
[1]; in vivo
  dose-limiting toxicity (DLT): rash
PDGFRa
  inhibition of PDGFRa: potently inhibited
animals; pre-clinical studies in animals
  arterial occlusive events: no arterial occlusive events
animals; pre-clinical toxicology studies
  cardio-vascular findings: No cardio-vascular findings
EPHA7
  inhibition of EPHA7: not
